Test results: US20230145794A1, “SOLVENT COMPOSITIONS PROMOTING PLANT GROWTH” (WinField Solutions, LLC, priority 2021, published 2023)

experiment: Physical properties of solvent/PGR compositions (flash point tester, pH, density); assay type: physicochemical; conditions: flashpoint tester
Protocol: The physical properties of the various solvents and solvent combinations in combination with the assortment of PGR compositions were determined using standard laboratory equipment. Flash point was determined using a flashpoint tester.
The solvents initially examined included 2-butoxy ethanol (“BE”), BHT, propylene glycol (“PG”), methoxy propanol, water, polyethelene glycol (“PEG”), and Tetrahydrofurfyl alcohol (“THFA”), alone and/or in various combinations, with and without PGR compositions including Kinetin, indole butyric acid (“IBA”) and gibberellin A4 (“GA4”).

Point of comparison: COCC(C)O (stereo not shown) [Comp 40, methoxy propanol], “Flash Point” value 89 C°. Against it:
- OCC1CCCO1 (stereo not shown) [Comp 41, THFA] — higher, 183 C°

experiment: not given; conditions: known solvent, from Safety Data Sheet; cited from earlier work

Point of comparison: CCCCCOC(C)=O [compound 14, Amyl Acetate], Density 0.876 g/mL. Against it:
- CCOC(C)=O [compound 1, Ethyl acetate] — within 1.5-fold, 1.049 g/mL
- COCC(C)O (stereo not shown) [compound 2, 1-methoxy-2-propanol] — within 1.5-fold, 0.942 g/mL
- CCCCOCCOCCO [compound 4, Diethylene glycol butyl ether] — within 1.5-fold, 0.967 g/mL
- CCCCC(CC)COC(=O)C(C)O (stereo not shown) [compound 5, Lactic acid, 2-ethylhexyl ester] — within 1.5-fold, 1.209 g/mL
- CCCCC(CC)CO (stereo not shown) [compound 7, Ethyl hexanol] — within 1.5-fold, 0.833 g/mL
- CC(O)CO (stereo not shown) [compound 9, Propylene Glycol] — within 1.5-fold, 1.036 g/mL
- CC(=O)OCCCCCCCC=O [compound 11, Oxo-octyl acetate] — within 1.5-fold, 0.867 g/mL

Point of comparison: CCCCC(CC)COC(=O)C(C)O (stereo not shown) [compound 5, Lactic acid, 2-ethylhexyl ester], “Flash Point” value 110 C. °. Against it:
- CCCCOCCO [compound 3, Ethylene glycol butyl ether, 2-butoxyl ethanol] — lower, 60 C. °
- CCCCOCCOCCO [compound 4, Diethylene glycol butyl ether] — lower, 78 C. °
- OCC1CCCO1 (stereo not shown) [compound 6, Tetrahydrofurfyl Alcohol] — lower, 84 C. °
- CCCCC(CC)CO (stereo not shown) [compound 7, Ethyl hexanol] — lower, 73 C. °
- CCCCOC(=O)C(C)O (stereo not shown) [compound 8, Butyl lactate] — lower, 76 C. °
- CC(O)CO (stereo not shown) [compound 9, Propylene Glycol] — lower, 101 C. °
- CC(=O)OCCCCCCCC=O [compound 11, Oxo-octyl acetate] — lower, 86 C. °
- CC(=O)OCC(COC(C)=O)OC(C)=O [compound 12, Glyceryl triacetate] — higher, 138 C. °
- CCCCCOC(C)=O [compound 14, Amyl Acetate] — lower, 32 C. °

Point of comparison: CCCCC(CC)CO (stereo not shown) [compound 7, Ethyl hexanol], “Boiling Point” value 185 C. °. Against it:
- CC(=O)OCCCCCCCC=O [compound 11, Oxo-octyl acetate] — higher, 211 C. °
